Assay results reported in PMC10917278, “Structural insights into the modulation Of SOD1 aggregation By a fungal metabolite Phialomustin-B: Therapeutic potential in ALS” (PLOS ONE, 2024).

Target: T1, SOD1^WT (Homo sapiens, UniProt P00441)
T1 construct: The full-length constructs of SOD1-wild type (aa: 1–145); His-tag (cleaved yes); made in house; host or cells: E. coli BL21 DE3
Test: Thioflavin T (ThT) fluorescence aggregation assay, SOD1^WT
Type: biochemical
Details: 37 °C, reduced conditions
Experimental: Following the co-crystal structure elucidation of SOD1 in complex with PB, we wanted to identify the effect of PB on the aggregation of SOD1^WT and its disease mutant, SOD1^A4V. A comprehensive analysis of the anti-aggregation propensity of PB was performed using a ThT-based fluorescence assay and analytical size-exclusion based chromatography (SEC) assay. We used Thioflavin-T, a β-sheet formation reporter, to assess the aggregation of SOD1. Time lag (tlag) is a kinetic parameter used to evaluate the lag phase of fibrillation. Fibril elongation was used to evaluate the rate of β sheet formation. […] Similar effects on lag time are also observed for SOD1^A4V. […] Moreover, ThT-based aggregation assays were also performed for the PB site-specific mutants, SOD1^A123F, SOD1^K9F, SOD1^L42R, and SOD1^G10P (S4a, S4c, S4e and S4g Fig). As expected based on the abovementioned MST results, the aggregation analysis is inconclusive as these mutants, which correspond to the ligand binding residues, cause a loss of protein-ligand interactions.
Fig 6 Aggregation studies of metallated and reduced SOD1^WT and SOD1^A4V on treatment with PB. ThT fluorescence was monitored during the co-incubation of metallated SOD1^WT (50 μM) (a) or SOD1^A4V (50 μM) (b) with PB at 1:30 molar ratio at 37 °C with continuous shaking, under reduced conditions. The values were normalized to the maximal ThT intensity elicited by SOD1^WT or SOD1^A4V and fitted to a Boltzmann sigmoidal equation. The control and PB-treated species were compared to analyse the effects of PB on the aggregation of SOD1^WT and SOD1^A4V. Error bars indicate the standard deviation. Analytical SEC of metallated SOD1^WT (50 μM) (c) and SOD1^A4V (50 μM) (d) with PB were analyzed under reducing conditions before and after 24 hrs and 48 hrs incubation at 37 °C. The first peak eluting at the volume was denoted as oligomerized SOD1^WT/SOD1^A4V (L). The second, third, and fourth peaks were calculated as trimer (T), dimer (D), and monomer (M) species of SOD1^WT/SOD1^A4V running at 14.5 ml, 15.7 ml, and 16.5 ml, respectively. […] The monomer (M), dimer (D), trimer (T), and large aggregate (L) species are shown as green, purple, red, and black dotted lines, respectively. All the experiments were performed for n = 3 biological replicates.
Fig 7 Aggregation studies of de-metallated and reduced SOD1^WT and SOD1^A4V on treatment with PB. ThT fluorescence was monitored during the co-incubation of de-metallated SOD1^WT (50 μM) (a) or SOD1^A4V (50 μM) (b) with PB at 1:30 molar ratio at 37 °C with continuous shaking, under reduced conditions. The values were normalized to the maximal ThT intensity elicited by SOD1^WT or SOD1^A4V and fitted to a Boltzmann sigmoidal equation. The control and PB-treated species were compared to analyse PB’s effects on the aggregation of SOD1^WT and SOD1^A4V. Analytical SEC of de-metallated SOD1^WT (50 μM) (a) and SOD1^A4V (50 μM) (b) with PB were analysed under reducing conditions before and after 24 hrs and 48 hrs incubation at 37 °C. The first peak eluting at the volume was denoted as oligomerized SOD1^WT (L) runs at 9.2 ml. The second, third, and fourth peaks were calculated as trimer (T), dimer (D), and monomer (M) species of SOD1^WT/SOD1^A4V running at 14.5 ml, 15.7 ml, and 16.5 ml, respectively. […] In the case of SOD1^A4V, PB eliminates the formation of large aggregates compared to the control (48hrs-EC, EC represents control with EDTA). […]

[1] = De-metallated (5 mM EDTA) SOD1^WT 50 μM with PB at 1:30 molar ratio
[2] = Metallated SOD1^WT 50 μM with PB at 1:30 molar ratio

T1 sequence (P00441 whole entry): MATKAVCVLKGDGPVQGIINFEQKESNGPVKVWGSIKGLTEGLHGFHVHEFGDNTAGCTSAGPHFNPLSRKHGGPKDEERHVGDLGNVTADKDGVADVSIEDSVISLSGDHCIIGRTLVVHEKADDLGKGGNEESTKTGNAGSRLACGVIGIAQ

kapp [1]: 0.374 h⁻¹ | t50 [1]: 1.851 h | tlag [1]: 1.84 h | kapp [2]: 0.233 h⁻¹ | t50 [2]: 2.976 h
SMILES: CCCC[C@H](C)/C=C(C)/C=C/C(=O)O [PB, (S, 2E, 4E)-4,6-dimethyldeca-2,4-dienoic acid]
